From patent US20220273658A1, “SMALL MOLECULE LIVER X RECEPTOR MODULATORS AND USES THEREOF” (University of Houston System, priority 2019, published 2022)

Assays:
[1] = tested on: BxPC-3-luc2 cells; test: orthotopic xenograft mouse model of pancreatic cancer; assay type: in vivo
Source text: Data from studies using cultured cancer cell lines indicate that LXR agonists have anti-proliferative effects on PDAC cells by disrupting cell cycle progression and expression of key regulatory proteins and growth pathways. To determine the effects of ligands in vivo using a live imaging system, BxPC-3 cells engineered with […] firefly luciferase gene (BxPC-3-luc2) were obtained from a commercial source (Perkin Elmer) and then validated for luciferase expression and response to GW3965 treatment in culture. […] NCr athymic nude mice (n=5 per treatment group) were orthotopically injected with BxPC-3-luc2 cells and then gavaged daily with GW3965 dissolved in 0.5% methylcellulose or vehicle only. Animals were anesthetized, injected with luciferin, and imaged weekly to monitor and quantify tumor growth. […] Experiments were terminated after two weeks due to the morbidity associated with the tumor burden in test animals. […] Statistically significant differences in additive effects as compared to single compound treatments are denoted with asterisks.

[2] = pre-clinical testing; cited from earlier work
[3] = tested on: myeloid-derived suppressor cells (MDSCs); settings: in vivo; cited from earlier work
[4] = tested on: PDAC cell lines; test: MTS assay of overall cell metabolic rate; assay type: cell-based, human; settings: increasing concentrations of GW3965
[5] = tested on: LXR target genes SREBF1c, ABCA1, and ABCG1; test: expression of LXR target genes in pancreatic cancer cell lines; assay type: cell-based, human; settings: for basal expression of SREBF1c: all three pancreatic cancer cell lines; for expression of LXR target genes: three pancreatic cancer cell lines
Source text: To characterize the activity of the newly discovered ligands, the expression of LXR target genes SREBF1c, ABCA1, and ABCG1 was examined following treatment with vehicle, synthetic agonist GW3965, and Compounds 1E5 and 3A4. […] Basal expression of SREBF1c, the canonical LXR target gene involved in the regulation of glucose and lipid metabolism, was disrupted by the addition of novel LXR ligands, whereas their expression was induced following treatment with synthetic agonist GW3965 in all three pancreatic cancer cell lines tested, whereas the effects on ABCA1 and ABCG1 varied between the two novel ligands and across the cell lines.
(§1) To elucidate mechanisms of inverse agonism by the novel ligands, TR-FRET experiments were conducted to determine the effects of 1E5 and 3A4 on the recruitment of NR co-activators and co-repressors. […] In addition to their functions as inverse agonists, extended treatments with 1E5 and 3A4 also destabilized or decreased LXR proteins.

[6] = tested on: PDAC cell lines; test: clonogenic assay, colony formation; assay type: cell-based, human; settings: long-term treatment, each cell line
Method: (§2) To determine the effects of LXR ligands on PDAC cell proliferation, cells were treated with synthetic LXR agonist GW3965 and live cells were quantified using trypan blue exclusion assays. […] FIGS. 8A, 8B, and 8C show dose-dependent decreases in cell proliferation in BxPC-3, Mia-PaCa-2, and PANC-1, respectively upon treatment with increasing GW3965 concentrations. […] Clonogenic assays were also employed to evaluate the effects of long-term LXR ligand treatment on cell proliferation and colony formation. […] These findings indicate that LXRs are involved in PDAC cell proliferation and targeting LXRs with ligands perturb their normal functions in cell proliferation.

[7] = tested on: PDAC cell lines; test: tetrazolium salt reduction (WST) assay in PDAC cell lines; assay type: cell-based, human
Method: as §2
(§3) The initial identification and subsequent characterization of the two novel LXR ligands and their derivative compounds was carried out in screens in three human pancreatic cancer cell and one non-transformed human pancreatic epithelial cell line in three or more replicate experiments for each cell line using the WST tetrazolium salt reduction assays.

[8] = tested on: BxPC-3, Mia-PaCa-2, and PANC-1; test: cell proliferation, live cells quantified by trypan blue exclusion; assay type: cell-based, human; settings: increasing GW3965 concentrations; all three cell lines
Method: as §2

[9] = tested on: MCF-7 cells; test: breast cancer cell proliferation; assay type: cell-based
Source text: (§4) The inhibitory effects of LXR ligands in breast cancer cells have been shown previously. […] The observed decreases in LXR protein levels were not affected by proteasome inhibitor MG132.

[10] = tested on: MDA-MB-231 cells; test: breast cancer cell proliferation; assay type: cell-based
Source text: as §4

[11] = tested on: LXR proteins in MCF-7 cells; test: western blot of LXR protein levels; assay type: cell-based
Source text: as §4

[12] = tested on: LXR in MDA-MB-231 cells; test: western blot of LXR protein levels; assay type: cell-based
Source text: as §4

[13] = tested on: KPC tumor cells; test: growth of KPC tumor cells from mouse model of PDAC; assay type: cell-based
Source text: The effects of the ligands and derivatives on the growth of PDAC cells were further validated by cell counting and clonogenic assays.

[14] = tested on: LXR-LBD; test: differential scanning fluorimetry; assay type: binding
Source text: (§5) The synthesis and characterization of KD-01-39, a derivative of 3A4, have not been described previously.

[15] = tested on: HPNE cells; test: growth of non-transformed pancreatic epithelial cells (WST screen; FIG. 32D); assay type: cell-based, human; settings: WST screen
Method: as §3, §5

[16] = tested on: PDAC cells; test: pro-apoptotic caspase cleavage analysis; assay type: cell-based, human
Method: (§6) To determine if 1E5 and 3A4 can induce apoptosis, PDAC cells were treated with the LXR ligands and subjected to pro-apoptotic caspase cleavage analysis. […] Metabolomic profiling following treatments with the two ligands indicated the activation of two distinct cell death mechanisms. Ferroptosis is a non-apoptotic form of cell death which is characterized by accumulation of lipid peroxides by loss of glutathione peroxidase 4 (GPX4) activity. It can also be induced by accumulation of intracellular iron and depletion of reduced glutathione (GSH). GPX4 is an anti-oxidant enzyme involved in conversion of PUFA peroxides to PUFA alcohols. GSH is a critical cofactor of GPX4 and acts as a reducing agent to reduce the lipid peroxides. Therefore, direct inhibition of GPX4 activity or reduction in GSH levels trigger ferroptosis. The second mechanism of inducing ferroptosis is accumulation of polyunsaturated fatty acids (PUFAs) in cells. Studies have shown that PUFAs are the most susceptible lipids to peroxidation.
Accumulation of C18 ceramides in the mitochondria leads to the recruitment of auto phagosomes in mitochondria and induces LC3-ceramide dependent lethal mitophagy. […] Darkened circles indicate increases and the size of the circle corresponds to the significance of changes.

[17] = target: T1, LXR proteins (Homo sapiens, UniProt P55055); test: LXR protein levels after long-term treatment of pancreatic cancer cells; assay type: cell-based; settings: long-term treatments
T1 construct: expression of LXR proteins in different pancreatic cancer cell lines following long-term treatments; endogenous in cells; host or cells: pancreatic cancer cell lines (BxPC-3, MIA PaCa-2, PANC-1 named elsewhere)
Method: as §1

[18] = tested on: human PDAC cell lines; test: cell viability response curves with increasing concentrations; assay type: cell-based
[19] = tested on: pancreatic cancer cells; test: metabolomic analysis using mass spectroscopy in pancreatic cancer cells; assay type: cell-based, human; settings: PDAC cells
Method: To further characterize the mechanisms of action of novel LXR modulators 1E5 and 3A4, metabolomic and transcriptomic analysis of pancreatic cancer cells were conducted in response to treatment. […] PDAC tumors have altered metabolism to support its growth and survival. Previous studies have reported that Kras upregulates the non-canonical use of glutamine to maintain NADPH/NADP+ ratio which in turn regulates redox homeostasis. This unconventional use of glutamine by PDAC cells fuel cancer cell proliferation and survival. Glutamine metabolism in PDAC has two unique functions: 1. Glutamine-derived Glutamate is used for glutathione (GSH) biosynthesis. 2. Glutamine facilitates generation of reducing equivalents in the form of NADPH. In PDAC mitochondria, glutamine is converted to glutamate by glutaminase enzyme (GLS1). This glutamine derived glutamate is conventionally converted to alpha-ketoglutarate by glutamate dehydrogenase (GLUD1) to fuel citric acid cycle. However, in PDAC cells glutamate is converted to aspartate in cytosol which is converted to malic acid and NADPH is produced during this process. This process is essential to maintain redox homeostasis in the tumor. However, this non-canonical use of glutamine is dispensable in non-malignant cells. Therefore, targeting GLS1 to decrease the bioavailability of glutamate to act as source of nitrogen and carbon for the synthesis of amino acids and nucleic acids is a viable strategy to target PDAC tumors. […] The effect of 1E5 is similar to BPTES, a potent GLS1 inhibitor.
TCA cycle intermediates act as anaplerotic substrate for gluconeogenesis and lipogenesis. […] GOT2 converts glutamine-derived glutamate to alpha-KG. During this process oxaloacetate is converted to aspartate which is required to maintain redox homeostasis. Studies have shown that inhibition of GOT2 in PDAC promotes senescence.
as §6
Expression profiles of ferroptosis genes in RNAseq data following 1E5 treatment were also consistent with its pro-ferroptotic actions. […] Polyamines are amino-acid derived polycationic alkylamines that are required for the growth of cells. SAT1 catalyzes the acetylation of spermidine and spermine to form N-acetylspermidine and N-acetylspermine respectively. […] SAT1 induces ferroptosis by upregulating the peroxidation of PUFA arachidonic acid. Ceramides are sphingolipids consisting of sphingosine and fatty acid acyl chain. Cellular stress leads to upregulation of ceramide synthesis which mediate caspase-dependent apoptosis. Accumulation of ceramides/hexosylceramides in the mitochondria leads to the formation of channel like structures in the mitochondrial outer membrane which increases the permeability of pro-apoptotic proteins such as cytochrome c. ER stress is also known to activate de-novo synthesis of ceramides and induce apoptosis by increasing the flow of Ca ions and upregulating the unfolded protein stress response. […]

[20] = tested on: MDA-MB-231; test: expression of LXR target genes in breast cancer cells; assay type: cell-based; settings: MDA-MB-231, triple-negative
Source text: as §4

[21] = tested on: MCF-7; test: as above; assay type: cell-based; settings: MCF-7, ER-positive
Source text: as §4

[22] = tested on: LXR ligand-binding domain; test: TR-FRET assay of co-activator and co-repressor peptide recruitment; assay type: biochemical
Method: as §1, §5

T1 sequence (P55055 whole entry): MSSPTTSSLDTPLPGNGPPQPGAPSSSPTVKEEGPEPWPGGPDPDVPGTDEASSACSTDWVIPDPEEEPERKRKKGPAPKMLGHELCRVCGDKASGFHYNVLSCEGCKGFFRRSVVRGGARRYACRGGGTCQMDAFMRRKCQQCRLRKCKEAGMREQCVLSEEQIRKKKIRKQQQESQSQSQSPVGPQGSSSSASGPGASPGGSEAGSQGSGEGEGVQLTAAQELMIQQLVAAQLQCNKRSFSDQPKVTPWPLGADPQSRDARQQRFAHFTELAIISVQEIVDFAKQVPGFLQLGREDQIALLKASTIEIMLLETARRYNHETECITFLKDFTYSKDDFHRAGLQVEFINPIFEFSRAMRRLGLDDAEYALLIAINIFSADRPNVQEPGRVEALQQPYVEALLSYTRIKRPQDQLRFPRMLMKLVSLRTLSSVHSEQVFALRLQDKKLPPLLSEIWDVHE

With `O=C(O)Cc1cccc(OCCCN(Cc2cccc(C(F)(F)F)c2Cl)CC(c2ccccc2)c2ccccc2)c1` [GW3965] the “tumor growth (luciferase signal)” value ([1]; 40 mg/kg and 80 mg/kg, daily gavage, one and two weeks) was “reduced tumor growth”, the “tumor size, post-mortem examination” value ([1]; control vs treated animals) was “significant differences in tumor size” and the bioavailability following ingestion ([1]; daily gavage) was “confirmed the bioavailability”. For the same compound, the toxicity following ingestion ([1]; mouse, in vivo) was “low toxicity”, the “circulating and liver triglyceride levels” value [2] was “increased circulating and liver triglyceride levels” and the “anti-tumor effects of PD-1 inhibitor immunotherapy” value [3] was “enhanced the anti-tumor effects of PD-1 inhibitor immunotherapy”. The “recruitment and apoptosis of immunosuppressive MDSCs” value [3] was “blocked the recruitment and increased apoptosis”, the “overall metabolism (MTS)” value [4] was “dose-dependent drop in overall metabolism” and the “basal expression of SREBF1c” value [5] was “induced”. The “expression of LXR target genes” value [5] was “increased target gene expression”, the colony formation [6] was “strongly inhibited colony formation” and the “growth of PDAC cell lines” value ([7]; GW3965, WST assay) was “suppressed the growth of PDAC cell lines in a dose-dependent manner”. The cell proliferation [8] was “significantly inhibited”.
In the case of `COc1cc(OC)cc(C(=O)N2CCN(c3ccccc3C)CC2)c1` [Compound 3A4, 1-(3,5-dimethoxybenzoyl)-4-(2-methylphenyl)piperazine], the “proliferation of MCF-7 cells” value [9] is reported as “inhibited the proliferation”, the “proliferation of MDA-MB-231 cells” value [10] is reported as “inhibited” and the “LXR protein levels (degradation)” value [11] is reported as “act as degraders of LXR proteins”. The “LXR protein levels (degradation)” value [12] was “only 1E5 degraded LXR”, the “growth of KPC tumor cells” value [13] was “blocked the growth” and the “LXR-LBD structure and dye dissociation with increasing temperature” value [14] was “disrupted the LBD structure”. The “activity against non-transformed HPNE cells” value [15] was “little activity”, the pro-apoptotic caspase cleavage [16] was “induced pro-apoptotic caspase cleavage” and the apoptosis ([16]; PDAC cells) was “induces caspase-dependent apoptosis”. For the same compound, the LXR protein levels [17] was “decreased LXR protein levels”, the “potency in response curves compared to GW3965” value [18] was “more potent activity as compared to GW3965” and the “levels of C18 and C16 ceramides and hexosylceramides” value [19] was “significantly upregulates”. For the same compound, the “expression of LXR target genes” value [20] was “generally down-regulated”, the “expression of LXR target genes” value [21] was “generally down-regulated” and the “basal expression of SREBF1c” value [5] was “disrupted”. For the same compound, the “expression of FASN, SCD, and ACC” value ([5]; pancreatic cancer cells) was “decreased the expression”, the “expression of LXR target genes” value [5] was “reducing the expression of LXR target genes” and the “human pancreatic cancer cells growth” value ([7]; WST screen, three human pancreatic cancer cell lines) was “effective in inhibiting human pancreatic cancer cells growth”. For the same compound, the “co-activator peptide binding to LXR ligand-binding domain” value ([22]; co-activator (D22) peptide) was “did not affect co-activator peptide binding” and the “binding of NCOR and SMRT co-repressor peptides” value ([22]; co-repressor (NCOR and SMRT-ID2) peptides) was “increased the binding”.
